Assay results: patent publication US20230117034A1, “PYRAZOLOTRIAZINES” (Bayer Aktiengesellschaft, priority 2019, published 2023)

Experiments:
[1] = biological target: T1, CDK9/CycT1 (Homo sapiens, UniProt P50750); experiment: CDK9/CycT1 high ATP kinase assay (TR-FRET, 2 mM ATP); assay type: biochemical; conditions: 2 mM ATP (high ATP); median; read-out: CDK9/CyclinT1, 2 mM ATP (high ATP), IC50 (median)
T1 construct: Recombinant full-length His-tagged human CDK9 and CycT1; purchased Life Technologies PV4131; host or cells: insect cells
T1 sequence (P50750 whole entry): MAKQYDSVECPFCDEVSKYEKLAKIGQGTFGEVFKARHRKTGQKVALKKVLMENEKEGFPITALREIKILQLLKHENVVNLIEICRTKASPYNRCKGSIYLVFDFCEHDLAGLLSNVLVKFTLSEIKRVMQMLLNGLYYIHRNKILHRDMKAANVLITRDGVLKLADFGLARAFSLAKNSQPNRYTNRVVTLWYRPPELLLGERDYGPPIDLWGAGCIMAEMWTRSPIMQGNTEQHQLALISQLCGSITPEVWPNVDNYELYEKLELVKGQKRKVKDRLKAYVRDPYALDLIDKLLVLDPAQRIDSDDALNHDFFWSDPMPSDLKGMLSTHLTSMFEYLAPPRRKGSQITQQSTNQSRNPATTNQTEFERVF
T1 sequence (O60563 whole entry partner): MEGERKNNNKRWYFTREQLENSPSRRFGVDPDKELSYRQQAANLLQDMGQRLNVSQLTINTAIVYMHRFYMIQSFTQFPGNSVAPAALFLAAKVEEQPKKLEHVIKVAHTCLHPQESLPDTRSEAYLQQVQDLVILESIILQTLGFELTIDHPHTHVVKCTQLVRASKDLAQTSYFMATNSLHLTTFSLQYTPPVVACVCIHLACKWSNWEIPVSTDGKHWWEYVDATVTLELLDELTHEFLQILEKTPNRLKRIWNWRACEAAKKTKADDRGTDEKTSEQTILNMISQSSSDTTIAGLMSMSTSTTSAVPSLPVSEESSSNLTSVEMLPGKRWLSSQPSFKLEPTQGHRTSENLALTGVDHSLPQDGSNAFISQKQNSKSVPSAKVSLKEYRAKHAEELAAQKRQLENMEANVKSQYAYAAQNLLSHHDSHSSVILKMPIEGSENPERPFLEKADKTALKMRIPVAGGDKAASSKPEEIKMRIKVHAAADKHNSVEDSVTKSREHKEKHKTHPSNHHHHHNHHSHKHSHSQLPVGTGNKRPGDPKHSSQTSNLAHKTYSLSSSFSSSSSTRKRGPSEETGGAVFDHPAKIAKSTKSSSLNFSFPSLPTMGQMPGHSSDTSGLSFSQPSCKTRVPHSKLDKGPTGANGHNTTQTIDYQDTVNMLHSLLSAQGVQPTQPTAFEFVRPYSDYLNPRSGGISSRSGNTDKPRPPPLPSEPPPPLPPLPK
Summary of the method: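 Full-length His-tagged human CDK9/CycT1 (insect cell, ~0.5 μg/mL) preincubated 15 min at 22 °C with compound in Tris pH 8.0, MgCl2, DTT buffer before reaction with biotinylated peptide substrate at high ATP (2 mM).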

[2] = tested on: CAL-120, human breast adenocarcinoma cells; experiment: Proliferation assay CAL-120 (crystal violet, 4 days); assay type: cell-based; conditions: Homo sapiens, CAL-120, 96 h, CAL-120 cells, median, read-out: Prolif-CAL-120, IC50-[mol/l] (median)
Summary of the method: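 IC50 from a 4-parameter fit of crystal violet absorbance (595 nm), scaled between a day-0 plate (0%) and untreated wells (100%). Cells grown in 10% FCS medium were exposed to test substances at 0.01-10 µmol/L for 4 days, 0.1% DMSO final.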

[3] = biological target: T2, CDK12 (nuclear staining in CAL-120 cells) (Homo sapiens, UniProt Q9NYV4); experiment: CDK12 nuclear protein level: immunofluorescence/high content analysis (CAL-120); assay type: cell-based; conditions: for DC50: CAL-120 cells, 24 h, immunofluorescence, 50% reduction of nuclear CDK12 staining intensity, median, read-out: CDK12 degradation IF, DC50- [mol/l] (median); for (IC50 CDK12 high ATP) to (Degradation DC50 CDK12) ratio: ratio of IC50 CDK12 high ATP kinase assay to DC50 CDK12 degradation (IF, CAL-120)
T2 construct: endogenous in cells; host or cells: CAL-120 human breast cancer cells (DSMZ ACC 459)
T2 sequence (Q9NYV4 whole entry): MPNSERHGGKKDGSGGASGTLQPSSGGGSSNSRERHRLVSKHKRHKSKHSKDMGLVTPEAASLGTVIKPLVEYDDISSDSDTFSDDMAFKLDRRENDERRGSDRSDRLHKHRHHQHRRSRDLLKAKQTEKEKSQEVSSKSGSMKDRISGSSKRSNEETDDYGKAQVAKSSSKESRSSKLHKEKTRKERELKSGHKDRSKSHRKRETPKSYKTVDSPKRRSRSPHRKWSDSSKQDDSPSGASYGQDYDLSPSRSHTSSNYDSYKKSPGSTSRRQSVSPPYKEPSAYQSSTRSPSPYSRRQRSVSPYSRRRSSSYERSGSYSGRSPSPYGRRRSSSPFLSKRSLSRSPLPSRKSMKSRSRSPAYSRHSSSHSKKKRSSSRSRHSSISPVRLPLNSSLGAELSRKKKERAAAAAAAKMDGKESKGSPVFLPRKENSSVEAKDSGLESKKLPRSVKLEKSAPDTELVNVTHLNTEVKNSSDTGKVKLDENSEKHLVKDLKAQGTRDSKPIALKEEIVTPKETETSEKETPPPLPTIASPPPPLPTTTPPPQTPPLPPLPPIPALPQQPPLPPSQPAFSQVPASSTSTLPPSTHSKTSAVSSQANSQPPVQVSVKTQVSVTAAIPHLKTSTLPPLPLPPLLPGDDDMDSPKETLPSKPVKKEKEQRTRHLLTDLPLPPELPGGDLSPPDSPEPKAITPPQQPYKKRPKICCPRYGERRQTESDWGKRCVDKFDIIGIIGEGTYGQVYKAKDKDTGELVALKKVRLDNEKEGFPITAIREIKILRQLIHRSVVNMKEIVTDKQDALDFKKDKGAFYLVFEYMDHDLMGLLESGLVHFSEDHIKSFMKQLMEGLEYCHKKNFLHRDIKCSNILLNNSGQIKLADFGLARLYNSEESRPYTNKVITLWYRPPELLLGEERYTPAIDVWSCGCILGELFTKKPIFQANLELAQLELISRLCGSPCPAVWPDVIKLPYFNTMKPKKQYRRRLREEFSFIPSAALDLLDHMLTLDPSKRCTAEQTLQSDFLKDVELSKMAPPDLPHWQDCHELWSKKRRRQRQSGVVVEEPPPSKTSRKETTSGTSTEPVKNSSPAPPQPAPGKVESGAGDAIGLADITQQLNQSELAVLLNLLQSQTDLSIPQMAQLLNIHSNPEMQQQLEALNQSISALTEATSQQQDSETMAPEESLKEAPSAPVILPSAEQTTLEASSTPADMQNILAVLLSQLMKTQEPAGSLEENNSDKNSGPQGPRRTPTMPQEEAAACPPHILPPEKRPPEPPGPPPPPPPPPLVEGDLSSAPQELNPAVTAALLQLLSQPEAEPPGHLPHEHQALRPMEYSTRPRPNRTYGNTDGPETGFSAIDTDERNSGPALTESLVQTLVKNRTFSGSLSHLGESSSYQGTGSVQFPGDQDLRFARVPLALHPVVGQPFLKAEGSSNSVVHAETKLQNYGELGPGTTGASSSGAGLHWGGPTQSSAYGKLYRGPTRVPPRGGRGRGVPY
T2 sequence (O75909 whole entry partner): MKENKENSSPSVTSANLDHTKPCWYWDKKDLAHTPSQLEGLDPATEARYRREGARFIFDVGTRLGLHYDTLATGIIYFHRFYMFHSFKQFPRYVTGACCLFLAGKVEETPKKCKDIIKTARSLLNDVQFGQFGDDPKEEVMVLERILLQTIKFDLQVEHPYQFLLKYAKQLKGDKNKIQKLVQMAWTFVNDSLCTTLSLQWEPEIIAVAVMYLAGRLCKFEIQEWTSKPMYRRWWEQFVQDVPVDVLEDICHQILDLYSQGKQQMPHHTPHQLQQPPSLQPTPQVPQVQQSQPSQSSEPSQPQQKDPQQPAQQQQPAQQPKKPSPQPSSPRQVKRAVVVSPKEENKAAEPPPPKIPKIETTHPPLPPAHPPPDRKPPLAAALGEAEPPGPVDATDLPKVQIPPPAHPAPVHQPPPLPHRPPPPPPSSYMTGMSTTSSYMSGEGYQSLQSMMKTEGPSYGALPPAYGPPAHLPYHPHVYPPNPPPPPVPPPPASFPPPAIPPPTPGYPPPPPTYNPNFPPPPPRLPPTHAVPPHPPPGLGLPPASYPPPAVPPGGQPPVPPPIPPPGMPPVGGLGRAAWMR
Summary of the method: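 DC50 is the degrader concentration that halves nuclear CDK12 immunofluorescence relative to controls, measured by high-content imaging. CAL-120 cells were exposed to compound for 24 h at 37 °C before PFA fixation, and signal was normalized to DMSO and control wells.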

Compound | IC50 [1] [µM] | IC50 [2] [µM] | DC50 [3] [µM] | (IC50 CDK12 high ATP) to (Degradation DC50 CDK12) ratio [3]
C[C@@H]1CN(c2nc(NCc3nc4ccccc4[nH]3)n3ncc(Br)c3n2)C[C@H](C)N1C [Example 129, N-(1H-benzimidazol-2-ylmethyl)-8-bromo-2-[(3R,5S)-3,4,5-trimethylpiperazin-1-yl]pyrazolo[1,5-a][1,3,5]triazin-4-amine] | > 20 | 0.125 | 0.00498 | >3658
C[C@H]1CN(c2nc(NCc3nc4ccccc4[nH]3)n3ncc(Br)c3n2)CCN1C [Example 132, N-[(1H-benzimidazol-2-yl)methyl]-8-bromo-2-[(3S)-3,4-dimethylpiperazin-1-yl]pyrazolo[1,5-a][1,3,5]triazin-4-amine] | > 20 | 0.0434 | 0.000922 | >20812
Brc1cnn2c(NCc3nc4ccccc4[nH]3)nc(N3CCOCC3C3CC3)nc12 (stereo not shown) [Example 117, N-(1H-benzimidazol-2-ylmethyl)-8-bromo-2-(3-cyclopropylmorpholin-4-yl)pyrazolo[1,5-a][1,3,5]triazin-4-amine] | > 20 | 0.0231 | 0.00377 | 1278
Fc1cccc2[nH]c(CNc3nc(N4CCOCC4)nc4c(Br)cnn34)nc12 [Example 97, 8-bromo-N-[(4-fluoro-1H-benzimidazol-2-yl)methyl]-2-(morpholin-4-yl)pyrazolo[1,5-a][1,3,5]triazin-4-amine] | 13.4 | 0.00517 | 0.000327 | 2411
Fc1cc(F)cc(-c2nnc(CNc3nc(N4CCOCC4)nc4c(Br)cnn34)[nH]2)c1 [Example 105, 8-bromo-N-{[5-(3,5-difluorophenyl)-4H-1,2,4-triazol-3-yl]methyl}-2-(morpholin-4-yl)pyrazolo[1,5-a][1,3,5]triazin-4-amine] | 0.613 | 0.00736 | 0.00249 | 429
COc1ccc2[nH]c(CNc3nc(N4C[C@@H](C)O[C@@H](C)C4)nc4c(Br)cnn34)nc2c1 [Example 124, 8-bromo-2-[(2R, 6S)-2,6-dimethylmorpholin-4-yl]-N-[(5-methoxy-1H-benzimidazol-2-yl)methyl]pyrazolo[1,5-a][1,3,5]triazin-4-amine] | 6.1 | 0.00643 | 0.000768 | 636
Fc1ccccc1-c1cnn2c(NCc3nc4ccccc4[nH]3)nc(N3CCOCC3)nc12 [Example 95, N-[(1H-benzimidazol-2-yl)methyl]-8-(2-fluorophenyl)-2-(morpholin-4-yl)pyrazolo[1,5-a][1,3,5]triazin-4-amine] | > 20 | 0.23 | 0.0343 | >584
C[C@@H]1CN(c2nc(NCc3nnc(-c4ccccc4)[nH]3)n3ncc(Br)c3n2)C[C@H](C)N1 [Example 127, 8-bromo-2-[(3R,5S)-3,5-dimethylpiperazin-1-yl]-N-[(5-phenyl-4H-1,2,4-triazol-3-yl)methyl]pyrazolo[1,5-a][1,3,5]triazin-4-amine] | 6.32 | 0.0282 | 0.0051 | 1905
CN1CCN(c2nc(NCc3nc4c(F)c(F)ccc4[nH]3)n3ncc(Br)c3n2)CC1 [Example 133, 8-bromo-N-[(4,5-difluoro-1H-benzimidazol-2-yl)methyl]-2-(4-methylpiperazin-1-yl)pyrazolo[1,5-a][1,3,5]triazin-4-amine] | > 20 | 0.00441 | 0.000846 | 8279
Cc1ccc(-c2nnc(CNc3nc(N4CCOCC4)nc4c(Br)cnn34)[nH]2)cc1F [Example 98, 8-bromo-N-{[5-(3-fluoro-4-methylphenyl)-4H-1,2,4-triazol-3-yl]methyl}-2-(morpholin-4-yl)pyrazolo[1,5-a][1,3,5]triazin-4-amine] | 0.953 | 0.116 | 0.0385 | 28
CCN1CCN(c2nc(NCc3nc4ccccc4[nH]3)n3ncc(Br)c3n2)CC1 [Example 137, N-[(1H-benzimidazol-2-yl)methyl]-8-bromo-2-(4-ethylpiperazin-1-yl)pyrazolo[1,5-a][1,3,5]triazin-4-amine] | > 20 | 0.11 | 0.0108 | 1196
c1cncc(-c2cnn3c(NCc4nc5ccccc5[nH]4)nc(N4CCOCC4)nc23)c1 [Example 108, N-[(1H-benzimidazol-2-yl)methyl]-2-(morpholin-4-yl)-8-(pyridin-3-yl)pyrazolo[1,5-a][1,3,5]triazin-4-amine] | > 20 | 0.0896 | 0.00553 | >3617
CC1(C)CN(c2nc(NCc3nnc(-c4ccccc4)[nH]3)n3ncc(C4CC4)c3n2)CCO1 [Example 94, 8-cyclopropyl-2-(2,2-dimethylmorpholin-4-yl)-N-[(5-phenyl-4H-1,2,4-triazol-3-yl)methyl]pyrazolo[1,5-a][1,3,5]triazin-4-amine] | 12.8 | 0.177 | 0.025 | 352
CC1(C)CN(c2nc(NCc3nc4ccccc4[nH]3)n3ncc(C4CC4)c3n2)CCO1 [Example 123, N-[(1H-benzimidazol-2-yl)methyl]-8-cyclopropyl-2-(2,2-dimethylmorpholin-4-yl)pyrazolo[1,5-a][1,3,5]triazin-4-amine] | > 20 | 0.0832 | 0.00437 | 2883
C[C@@H]1CN(c2nc(NCc3nc4ccccc4[nH]3)n3ncc(Br)c3n2)C[C@H](C)N1 [Example 142, N-(1H-benzimidazol-2-ylmethyl)-8-bromo-2-[(3R,5S)-3,5-dimethylpiperazin-1-yl]pyrazolo[1,5-a][1,3,5]triazin-4-amine] | > 20 | 0.0113 | 0.00162 | 6679

Second part, the compound after the results:

IC50 [1] [µM] | IC50 [2] [µM] | DC50 [3] [µM] | (IC50 CDK12 high ATP) to (Degradation DC50 CDK12) ratio [3] | Compound
> 20 | 0.00413 | 0.00099 | >20194 | CN1CCN(c2nc(NCc3nc4cc(F)ccc4[nH]3)n3ncc(C4CC4)c3n2)CC1 [Example 164, 8-cyclopropyl-N-[(5-fluoro-1H-benzimidazol-2-yl)methyl]-2-(4-methylpiperazin-1-yl)pyrazolo[1,5-a][1,3,5]triazin-4-amine]
> 20 | 0.031 | 0.00382 | 2320 | Brc1cnn2c(NCc3nc4ccccc4[nH]3)nc(N3C[C@@H]4CCCN[C@@H]4C3)nc12 [Example 146, N-[(1H-benzimidazol-2-yl)methyl]-8-bromo-2-[(4aS,7aS)-octahydro-6H-pyrrolo[3,4-b]pyridin-6-yl]pyrazolo[1,5-a][1,3,5]triazin-4-amine]
1.23 | 0.00578 | 0.00258 | 1143 | Fc1cccc(-c2nnc(CNc3nc(N4C[C@H]5C[C@@H]4CO5)nc4c(Br)cnn34)[nH]2)c1 [Example 153, 8-bromo-N-{[5-(3-fluorophenyl)-4H-1,2,4-triazol-3-yl]methyl}-2-[(1R,4R)-2-oxa-5-azabicyclo[2.2.1]heptan-5-yl]pyrazolo[1,5-a][1,3,5]triazin-4-amine]
> 20 | 0.31 | 0.0139 | 359 | OCC1CCN1c1nc(NCc2nc3ccccc3[nH]2)n2ncc(Br)c2n1 (stereo not shown) [Example 147, [1-[4-(1H-benzimidazol-2-ylmethylamino)-8-bromo-pyrazolo[1,5-a][1,3,5]triazin-2-yl]azetidin-2-yl]methanol]
> 20 | 0.306 | 0.0309 | >646 | Brc1cnn2c(NCc3nc4ccccc4[nH]3)nc(N3CCC3)nc12 [Example 143, 2-(azetidin-1-yl)-N-[(1H-benzimidazol-2-yl)methyl]-8-bromopyrazolo[1,5-a][1,3,5]triazin-4-amine]
> 20 | 0.0247 | 0.00207 | 2046 | Cc1cccc2[nH]c(CNc3nc(N4CCN(C)CC4)nc4c(Br)cnn34)nc12 [Example 151, 8-bromo-N-[(4-methyl-1H-benzimidazol-2-yl)methyl]-2-(4-methylpiperazin-1-yl)pyrazolo[1,5-a][1,3,5]triazin-4-amine]
> 20 | 0.00173 | 0.000521 | 18457 | CN1CCN(c2nc(NCc3nc4c(F)c(F)ccc4[nH]3)n3ncc(C4CC4)c3n2)CC1 [Example 159, 8-cyclopropyl-N-[(4,5-difluoro-1H-benzimidazol-2-yl)methyl]-2-(4-methylpiperazin-1-yl)pyrazolo[1,5-a][1,3,5]triazin-4-amine]
